Broadly, the MIC80 is an inhibitory concentration at the 80% level, which refers to growth in some studies and to a panel of isolates in others.

Values after ≈ are worked out from the molar mass of the structure shown.

The values below come from ChEMBL document CHEMBL3217682, “Discovery of highly potent antifungal triazoles by structure-based lead fusion” (2011).

What all share (assay type): functional
The test system of one test is Candida albicans. The test is described as follows: Antifungal activity against Candida albicans assessed as turbidity after 24 hrs by serial dilution method.
The subject of test [1] is Candida tropicalis. The test is described as follows: Antifungal activity against Candida tropicalis assessed as turbidity after 24 hrs by serial dilution method.
The subject of test [2] is Kluyveromyces marxianus. The test is described as follows: Antifungal activity against Candida kefyr assessed as turbidity after 24 hrs by serial dilution method.
In a further test the test system is Trichophyton rubrum. In words: Antifungal activity against Trichophyton rubrum assessed as turbidity after 24 to 72 hrs by serial dilution method.
Test [3] deals with Candida parapsilosis. The test is described as follows: Antifungal activity against Candida parapsilosis assessed as turbidity after 24 hrs by serial dilution method. Conditions: Lodderomyces parapsilosis.
The test system of the next test is Cryptococcus neoformans. The test is described as follows: Antifungal activity against Cryptococcus neoformans assessed as turbidity after 72 hrs by serial dilution method.
For another test, the system named is Aspergillus fumigatus. The test is described as follows: Antifungal activity against Aspergillus fumigatus assessed as turbidity after 7 days by serial dilution method. Conditions: 168 h.
Test [4] concerns Candida parapsilosis. The test is described as follows: Ratio of fluconazole MIC80 to compound MIC80 for Candida parapsilosis.
The test system of test [5] is Kluyveromyces marxianus. In words: Ratio of fluconazole MIC80 to compound MIC80 for Candida kefyr.
The test system of test [6] is Candida tropicalis. The test is described as follows: Ratio of fluconazole MIC80 to compound MIC80 for Candida tropicalis.

For the compound `OC(CN1CCC(OCc2cccc(Cl)c2)CC1)(Cn1cncn1)c1ccc(F)cc1F` (stereo not drawn), the MIC80 in the test with Candida albicans worked out at 0.14 µM (≈ 0.0648 µg/mL); with Candida tropicalis [1] it was 0.14 µM (≈ 0.0648 µg/mL); in the test on Kluyveromyces marxianus [2] it was 0.54 µM (≈ 0.25 µg/mL); in the test with Trichophyton rubrum, 0.03 µM (≈ 0.0139 µg/mL); with Candida parapsilosis [3], 0.03 µM (≈ 0.0139 µg/mL); in the test with Cryptococcus neoformans, 0.03 µM (≈ 0.0139 µg/mL). Further, the MIC80 in the test with Aspergillus fumigatus was 2.16 µM (≈ 1 µg/mL).
On to `CN(CC(O)(Cn1cncn1)c1ccc(F)cc1F)C1CCN(Cc2ccccc2)CC1` (stereo not drawn), for which the MIC80 with Candida albicans is 0.57 µM (≈ 0.252 µg/mL); in the test on Candida tropicalis [1], 2.26 µM (≈ 0.998 µg/mL); in the test on Kluyveromyces marxianus [2] it was 2.26 µM (≈ 0.998 µg/mL); in the test with Trichophyton rubrum, 2.26 µM (≈ 0.998 µg/mL); with Candida parapsilosis [3], 0.57 µM (≈ 0.252 µg/mL); with Cryptococcus neoformans, 2.26 µM (≈ 0.998 µg/mL). In addition, the MIC80 in the test with Aspergillus fumigatus is 145 µM (≈ 64 µg/mL).
As for `OC(CN1CCC(OCc2cccc(Br)c2)CC1)(Cn1cncn1)c1ccc(F)cc1F` (stereo not drawn), the MIC80 in the test on Candida albicans stood at 0.01 µM (≈ 0.00507 µg/mL); in the test on Candida tropicalis [1] it was 0.12 µM (≈ 0.0609 µg/mL); with Kluyveromyces marxianus [2], 0.49 µM (≈ 0.249 µg/mL); in the test with Trichophyton rubrum, 0.12 µM (≈ 0.0609 µg/mL); in the test with Candida parapsilosis [3], 0.12 µM (≈ 0.0609 µg/mL); in the test on Cryptococcus neoformans it was 0.12 µM (≈ 0.0609 µg/mL). Besides, in the test with Aspergillus fumigatus, the MIC80 worked out at 1.97 µM (≈ 1 µg/mL). Also, the Ratio in the test with Candida parapsilosis [4], with Kluyveromyces marxianus [5] and with Candida tropicalis [6] was 82 each time.
Take `OC(CN1CCC(OCc2ccccc2F)CC1)(Cn1cncn1)c1ccc(F)cc1F` (stereo not drawn): the MIC80 in the test with Candida albicans amounted to 0.01 µM (≈ 0.00446 µg/mL); in the test with Candida tropicalis [1], 0.03 µM (≈ 0.0134 µg/mL); in the test on Kluyveromyces marxianus [2] it was 0.56 µM (≈ 0.25 µg/mL); in the test with Trichophyton rubrum it was 0.14 µM (≈ 0.0625 µg/mL); with Candida parapsilosis [3], 0.03 µM (≈ 0.0134 µg/mL); in the test on Cryptococcus neoformans it was 0.03 µM (≈ 0.0134 µg/mL). Also, in the test with Aspergillus fumigatus, the MIC80 was 2.24 µM (≈ 1 µg/mL). The Ratio in the test with Candida parapsilosis [4], in the test with Kluyveromyces marxianus [5] and in the test on Candida tropicalis [6] was 82 in each case.
On to `OC(Cn1cncn1)(Cn1cncn1)c1ccc(F)cc1F` [FLUCONAZOLE], for which the MIC80 worked out at 0.82 µM (≈ 0.251 µg/mL) in the test on Candida albicans; 3.26 µM (≈ 0.998 µg/mL) in the test on Candida tropicalis [1]; 3.26 µM (≈ 0.998 µg/mL) with Kluyveromyces marxianus [2]; 3.26 µM (≈ 0.998 µg/mL) in the test on Trichophyton rubrum; 0.82 µM (≈ 0.251 µg/mL) in the test on Candida parapsilosis [3]; 0.2 µM (≈ 0.0613 µg/mL) with Cryptococcus neoformans. Besides, the MIC80 in the test on Aspergillus fumigatus was above 209 µM.
Regarding `N#Cc1ccc(COC2CCN(CC(O)(Cn3cncn3)c3ccc(F)cc3F)CC2)cc1` (stereo not drawn), the MIC80 was determined as 0.03 µM (≈ 0.0136 µg/mL) in the test with Candida albicans; 0.14 µM (≈ 0.0635 µg/mL) with Candida tropicalis [1]; 0.55 µM (≈ 0.249 µg/mL) in the test with Kluyveromyces marxianus [2]; 0.03 µM (≈ 0.0136 µg/mL) in the test on Trichophyton rubrum; 0.01 µM (≈ 0.00453 µg/mL) with Candida parapsilosis [3]; 0.03 µM (≈ 0.0136 µg/mL) in the test with Cryptococcus neoformans. In addition, the MIC80 in the test on Aspergillus fumigatus was 0.55 µM (≈ 0.249 µg/mL).
On to `OC(CN1CCC(OCc2ccccc2Cl)CC1)(Cn1cncn1)c1ccc(F)cc1F` (stereo not drawn), for which the MIC80 in the test with Candida albicans came out at 0.03 µM (≈ 0.0139 µg/mL); with Candida tropicalis [1], 0.14 µM (≈ 0.0648 µg/mL); in the test on Kluyveromyces marxianus [2], 0.54 µM (≈ 0.25 µg/mL); in the test with Trichophyton rubrum it was 0.14 µM (≈ 0.0648 µg/mL); with Candida parapsilosis [3] it was 0.03 µM (≈ 0.0139 µg/mL); in the test on Cryptococcus neoformans, 0.03 µM (≈ 0.0139 µg/mL). Besides, the MIC80 with Aspergillus fumigatus is 2.16 µM (≈ 1 µg/mL).
For the compound `OC(CN1CCC(OCc2ccccc2)CC1)(Cn1cncn1)c1ccc(F)cc1F` (stereo not drawn), the MIC80 with Candida albicans was found to be 0.01 µM (≈ 0.00428 µg/mL); in the test with Candida tropicalis [1], 0.04 µM (≈ 0.0171 µg/mL); in the test on Kluyveromyces marxianus [2], 0.15 µM (≈ 0.0643 µg/mL); in the test with Trichophyton rubrum it was 0.15 µM (≈ 0.0643 µg/mL); in the test on Candida parapsilosis [3], 0.04 µM (≈ 0.0171 µg/mL); with Cryptococcus neoformans, 0.04 µM (≈ 0.0171 µg/mL). The MIC80 with Aspergillus fumigatus was 2.33 µM (≈ 0.998 µg/mL). Besides, the Ratio in the test on Candida parapsilosis [4], in the test with Kluyveromyces marxianus [5] and in the test on Candida tropicalis [6] was 82 throughout.
Take `OC(CN1CCC(OCc2ccc(Cl)cc2Cl)CC1)(Cn1cncn1)c1ccc(F)cc1F` (stereo not drawn): the MIC80 with Candida albicans came to 0.13 µM (≈ 0.0647 µg/mL); in the test with Candida tropicalis [1] it was 0.13 µM (≈ 0.0647 µg/mL); in the test with Kluyveromyces marxianus [2], 0.5 µM (≈ 0.249 µg/mL); in the test with Trichophyton rubrum it was 0.13 µM (≈ 0.0647 µg/mL); in the test with Candida parapsilosis [3], 0.03 µM (≈ 0.0149 µg/mL); in the test with Cryptococcus neoformans, 0.03 µM (≈ 0.0149 µg/mL). In the test with Aspergillus fumigatus, the MIC80 is 2.01 µM (≈ 1 µg/mL).
On to `CN(CCCCOc1ccccc1)CC(O)(Cn1cncn1)c1ccc(F)cc1F` (stereo not drawn), for which the MIC80 with Candida albicans is 0.04 µM (≈ 0.0167 µg/mL); with Candida tropicalis [1] it was 0.04 µM (≈ 0.0167 µg/mL); in the test with Kluyveromyces marxianus [2], 0.6 µM (≈ 0.25 µg/mL); in the test on Trichophyton rubrum it was 0.6 µM (≈ 0.25 µg/mL); in the test with Candida parapsilosis [3] it was 0.15 µM (≈ 0.0625 µg/mL); in the test with Cryptococcus neoformans it was 0.15 µM (≈ 0.0625 µg/mL). Moreover, the MIC80 with Aspergillus fumigatus is above 154 µM.
Turning to `OC(CN1CCC(OCc2ccc(F)cc2)CC1)(Cn1cncn1)c1ccc(F)cc1F` (stereo not drawn), the MIC80 with Candida albicans came out at 0.14 µM (≈ 0.0625 µg/mL); in the test on Candida tropicalis [1], 0.03 µM (≈ 0.0134 µg/mL); in the test on Kluyveromyces marxianus [2], 0.56 µM (≈ 0.25 µg/mL); with Trichophyton rubrum, 0.03 µM (≈ 0.0134 µg/mL); in the test with Candida parapsilosis [3], 0.03 µM (≈ 0.0134 µg/mL); in the test on Cryptococcus neoformans, 0.03 µM (≈ 0.0134 µg/mL). In the test on Aspergillus fumigatus, the MIC80 was determined as 2.24 µM (≈ 1 µg/mL).
On to `OC(CN1CCC(OCc2ccc(Cl)c(Cl)c2)CC1)(Cn1cncn1)c1ccc(F)cc1F` (stereo not drawn), for which the MIC80 came out at 0.13 µM (≈ 0.0647 µg/mL) in the test with Candida albicans; 0.13 µM (≈ 0.0647 µg/mL) in the test on Candida tropicalis [1]; 0.5 µM (≈ 0.249 µg/mL) in the test on Kluyveromyces marxianus [2]; 0.03 µM (≈ 0.0149 µg/mL) with Trichophyton rubrum; 0.03 µM (≈ 0.0149 µg/mL) in the test on Candida parapsilosis [3]; 0.03 µM (≈ 0.0149 µg/mL) in the test on Cryptococcus neoformans. Also, the MIC80 with Aspergillus fumigatus is 2.01 µM (≈ 1 µg/mL).
